The values that follow are results of earlier work, collected in patent publication US8329872B2, “Drug monitoring assay” (Novartis AG, priority 2007, dated 2012).

The target of the data set is classical and novel protein kinase C (PKC) isoforms.

Turning to `CN1CCN(c2nc(C3=C(c4c[nH]c5ccccc45)C(=O)NC3=O)c3ccccc3n2)CC1` [AEB071], the ki values entry was “in the nM range”.
